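Step 1: Grow cells in 96-well plates. Step 2: Expose to compound for 48 hours at 5 concentrations. Step 3: Interpolate endpoints linearly; if unreached, use highest concentration. GI50: concentration for 50% inhibition of growth. TGI: total growth inhibition.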
What was measured:
Assay in all cases: NCI-60 cell line screen, 48 h; in the data active means GI50 below about 0.43 µM; inactive means the rest
T-47D breast = system: T-47D breast
OVCAR-3 ovarian = system: OVCAR-3 ovarian
MDA-MB-435 = system: MDA-MB-435
IGROV1 ovarian = system: IGROV1 ovarian
MOLT-4 leukemia = system: MOLT-4 leukemia
NCI-H226 lung = system: NCI-H226 lung
SNB-19 CNS = system: SNB-19 CNS
NCI-H522 lung = system: NCI-H522 lung
HCC-2998 colon = system: HCC-2998 colon
SN12C renal = system: SN12C renal
UO-31 renal = system: UO-31 renal
HL-60(TB) leukemia = system: HL-60(TB) leukemia
KM12 colon = system: KM12 colon
HS 578T breast = system: HS 578T breast
HCT-116 colon = system: HCT-116 colon
SNB-75 CNS = system: SNB-75 CNS
SK-OV-3 ovarian = system: SK-OV-3 ovarian
OVCAR-5 ovarian = system: OVCAR-5 ovarian
MDA-MB-231 breast = system: MDA-MB-231 breast
CAKI-1 renal = system: CAKI-1 renal
A549 NSCLC = system: A549 NSCLC
HCT-15 colon = system: HCT-15 colon
NCI/ADR-RES ovarian = system: NCI/ADR-RES ovarian
BT-549 breast = system: BT-549 breast
LOX IMVI melanoma = system: LOX IMVI melanoma
SF-539 CNS = system: SF-539 CNS
OVCAR-4 ovarian = system: OVCAR-4 ovarian
OVCAR-8 ovarian = system: OVCAR-8 ovarian
SK-MEL-5 melanoma = system: SK-MEL-5 melanoma
PC-3 prostate = system: PC-3 prostate
COLO 205 colon = system: COLO 205 colon
M14 melanoma = system: M14 melanoma
786-0 renal = system: 786-0 renal
SR leukemia = system: SR leukemia
NCI-H23 lung = system: NCI-H23 lung
U251 CNS = system: U251 CNS
SF-268 CNS = system: SF-268 CNS
MCF7 breast = system: MCF7 breast
K-562 leukemia = system: K-562 leukemia
SW-620 colon = system: SW-620 colon
RXF 393 renal = system: RXF 393 renal
RPMI-8226 leukemia = system: RPMI-8226 leukemia
A498 renal = system: A498 renal
HT29 colon = system: HT29 colon
HOP-62 NSCLC = system: HOP-62 NSCLC
TK-10 renal = system: TK-10 renal
CCRF-CEM leukemia = system: CCRF-CEM leukemia
ACHN renal = system: ACHN renal
SF-295 CNS = system: SF-295 CNS
DU-145 prostate = system: DU-145 prostate
HOP-92 NSCLC = system: HOP-92 NSCLC
UACC-62 melanoma = system: UACC-62 melanoma
SK-MEL-2 melanoma = system: SK-MEL-2 melanoma
MALME-3M melanoma = system: MALME-3M melanoma
SK-MEL-28 melanoma = system: SK-MEL-28 melanoma
NCI-H460 lung = system: NCI-H460 lung

COC(=O)N[C@@H](C)CNc1nccc(-c2cn(C(C)C)nc2-c2cc(Cl)cc(NS(C)(=O)=O)c2F)n1
inactive: GI50 (T-47D breast) > 100 µM | GI50 (OVCAR-3 ovarian) 62.8 µM | GI50 (IGROV1 ovarian) 0.678 µM | GI50 (MOLT-4 leukemia) 50.9 µM | GI50 (NCI-H226 lung) > 100 µM | GI50 (SNB-19 CNS) > 100 µM | GI50 (NCI-H522 lung) > 55.2 µM | GI50 (HCC-2998 colon) 30.9 µM | GI50 (SN12C renal) > 100 µM | GI50 (UO-31 renal) 4.57 µM | GI50 (HL-60(TB) leukemia) 0.741 µM | GI50 (KM12 colon) 70.1 µM | GI50 (HS 578T breast) 0.599 µM | GI50 (HCT-116 colon) 0.662 µM | GI50 (SNB-75 CNS) 0.51 µM | GI50 (OVCAR-5 ovarian) > 39.2 µM | GI50 (MDA-MB-231 breast) 5.72 µM | GI50 (CAKI-1 renal) 4.95 µM | GI50 (A549 NSCLC) 48.2 µM | GI50 (HCT-15 colon) 7.46 µM | GI50 (NCI/ADR-RES ovarian) > 100 µM | GI50 (BT-549 breast) > 100 µM | GI50 (SF-539 CNS) 62.6 µM | GI50 (OVCAR-4 ovarian) > 100 µM | GI50 (OVCAR-8 ovarian) > 100 µM | GI50 (SK-MEL-5 melanoma) > 100 µM | GI50 (PC-3 prostate) > 100 µM | GI50 (786-0 renal) 14.2 µM | GI50 (SR leukemia) 25.6 µM | GI50 (NCI-H23 lung) > 51.3 µM | GI50 (U251 CNS) 59.5 µM | GI50 (SF-268 CNS) > 100 µM | GI50 (MCF7 breast) 98.5 µM | GI50 (K-562 leukemia) 33.6 µM | GI50 (SW-620 colon) 12.1 µM | GI50 (RXF 393 renal) 0.623 µM | GI50 (RPMI-8226 leukemia) > 70 µM | GI50 (HOP-62 NSCLC) > 100 µM | GI50 (TK-10 renal) > 100 µM | GI50 (CCRF-CEM leukemia) 38.2 µM | GI50 (ACHN renal) 1.03 µM | GI50 (SF-295 CNS) 55.7 µM | GI50 (DU-145 prostate) > 93 µM
> 100 µM: TGI (T-47D breast) | TGI (OVCAR-3 ovarian) | TGI (MDA-MB-435) | TGI (IGROV1 ovarian) | TGI (MOLT-4 leukemia) | TGI (NCI-H226 lung) | TGI (SNB-19 CNS) | TGI (NCI-H522 lung) | TGI (HCC-2998 colon) | TGI (SN12C renal) | TGI (UO-31 renal) | TGI (KM12 colon) | TGI (HS 578T breast) | TGI (HCT-116 colon) | TGI (SNB-75 CNS) | TGI (SK-OV-3 ovarian) | TGI (OVCAR-5 ovarian) | TGI (MDA-MB-231 breast) | TGI (CAKI-1 renal) | TGI (A549 NSCLC) | TGI (HCT-15 colon) | TGI (NCI/ADR-RES ovarian) | TGI (BT-549 breast) | TGI (LOX IMVI melanoma) | TGI (SF-539 CNS) | TGI (OVCAR-4 ovarian) | TGI (OVCAR-8 ovarian) | TGI (SK-MEL-5 melanoma) | TGI (PC-3 prostate) | TGI (COLO 205 colon) | TGI (786-0 renal) | TGI (NCI-H23 lung) | TGI (U251 CNS) | TGI (SF-268 CNS) | TGI (MCF7 breast) | TGI (K-562 leukemia) | TGI (SW-620 colon) | TGI (RPMI-8226 leukemia) | TGI (A498 renal) | TGI (HT29 colon) | TGI (HOP-62 NSCLC) | TGI (TK-10 renal) | TGI (CCRF-CEM leukemia) | TGI (ACHN renal) | TGI (SF-295 CNS) | TGI (DU-145 prostate)
23.3 µM: TGI (RXF 393 renal)
active: GI50 (MDA-MB-435) < 0.01 µM | GI50 (SK-OV-3 ovarian) 0.363 µM | GI50 (LOX IMVI melanoma) 0.268 µM | GI50 (COLO 205 colon) < 0.01 µM | GI50 (M14 melanoma) < 0.01 µM | GI50 (A498 renal) 0.336 µM | GI50 (HT29 colon) < 0.01 µM
> 57.9 µM: TGI (HL-60(TB) leukemia)
> 84.7 µM: TGI (SR leukemia)

CN(CCOc1ccc(NS(C)(=O)=O)cc1)CCc1ccc(NS(C)(=O)=O)cc1
> 100 µM: TGI (T-47D breast) | TGI (HOP-92 NSCLC) | TGI (OVCAR-3 ovarian) | TGI (UACC-62 melanoma) | TGI (SK-MEL-2 melanoma) | TGI (MDA-MB-435) | TGI (IGROV1 ovarian) | TGI (MOLT-4 leukemia) | TGI (NCI-H226 lung) | TGI (SNB-19 CNS) | TGI (NCI-H522 lung) | TGI (HCC-2998 colon) | TGI (SN12C renal) | TGI (UO-31 renal) | TGI (HL-60(TB) leukemia) | TGI (KM12 colon) | TGI (HS 578T breast) | TGI (HCT-116 colon) | TGI (SNB-75 CNS) | TGI (OVCAR-5 ovarian) | TGI (MDA-MB-231 breast) | TGI (CAKI-1 renal) | TGI (A549 NSCLC) | TGI (HCT-15 colon) | TGI (NCI/ADR-RES ovarian) | TGI (BT-549 breast) | TGI (LOX IMVI melanoma) | TGI (MALME-3M melanoma) | TGI (SK-MEL-28 melanoma) | TGI (SF-539 CNS) | TGI (OVCAR-4 ovarian) | TGI (OVCAR-8 ovarian) | TGI (PC-3 prostate) | TGI (COLO 205 colon) | TGI (M14 melanoma) | TGI (786-0 renal) | TGI (SR leukemia) | TGI (NCI-H23 lung) | TGI (U251 CNS) | TGI (SF-268 CNS) | TGI (MCF7 breast) | TGI (K-562 leukemia) | TGI (SW-620 colon) | TGI (RXF 393 renal) | TGI (RPMI-8226 leukemia) | TGI (A498 renal) | TGI (NCI-H460 lung) | TGI (HT29 colon) | TGI (HOP-62 NSCLC) | TGI (TK-10 renal) | TGI (CCRF-CEM leukemia) | TGI (ACHN renal) | TGI (SF-295 CNS) | TGI (DU-145 prostate)
inactive: GI50 (T-47D breast) > 100 µM | GI50 (HOP-92 NSCLC) > 100 µM | GI50 (OVCAR-3 ovarian) > 100 µM | GI50 (UACC-62 melanoma) > 100 µM | GI50 (SK-MEL-2 melanoma) > 100 µM | GI50 (MDA-MB-435) > 100 µM | GI50 (IGROV1 ovarian) > 100 µM | GI50 (MOLT-4 leukemia) > 100 µM | GI50 (NCI-H226 lung) > 100 µM | GI50 (SNB-19 CNS) > 100 µM | GI50 (NCI-H522 lung) > 100 µM | GI50 (HCC-2998 colon) > 100 µM | GI50 (SN12C renal) > 100 µM | GI50 (UO-31 renal) > 100 µM | GI50 (HL-60(TB) leukemia) > 100 µM | GI50 (KM12 colon) > 100 µM | GI50 (HS 578T breast) > 100 µM | GI50 (HCT-116 colon) > 100 µM | GI50 (SNB-75 CNS) > 100 µM | GI50 (OVCAR-5 ovarian) > 100 µM | GI50 (MDA-MB-231 breast) > 100 µM | GI50 (CAKI-1 renal) > 100 µM | GI50 (A549 NSCLC) > 100 µM | GI50 (HCT-15 colon) > 100 µM | GI50 (NCI/ADR-RES ovarian) > 100 µM | GI50 (BT-549 breast) > 100 µM | GI50 (LOX IMVI melanoma) > 100 µM | GI50 (MALME-3M melanoma) > 100 µM | GI50 (SK-MEL-28 melanoma) > 100 µM | GI50 (SF-539 CNS) > 100 µM | GI50 (OVCAR-4 ovarian) > 100 µM | GI50 (OVCAR-8 ovarian) > 100 µM | GI50 (PC-3 prostate) > 100 µM | GI50 (COLO 205 colon) > 100 µM | GI50 (M14 melanoma) > 100 µM | GI50 (786-0 renal) > 100 µM | GI50 (SR leukemia) > 100 µM | GI50 (NCI-H23 lung) > 100 µM | GI50 (U251 CNS) > 100 µM | GI50 (SF-268 CNS) > 100 µM | GI50 (MCF7 breast) > 100 µM | GI50 (K-562 leukemia) > 100 µM | GI50 (SW-620 colon) > 100 µM | GI50 (RXF 393 renal) > 100 µM | GI50 (RPMI-8226 leukemia) > 100 µM | GI50 (A498 renal) 96 µM | GI50 (NCI-H460 lung) > 100 µM | GI50 (HT29 colon) > 100 µM | GI50 (HOP-62 NSCLC) > 100 µM | GI50 (TK-10 renal) > 100 µM | GI50 (CCRF-CEM leukemia) > 100 µM | GI50 (ACHN renal) > 100 µM | GI50 (SF-295 CNS) > 100 µM | GI50 (DU-145 prostate) > 100 µM
